Test results: ChEMBL document CHEMBL4052685, “Design, synthesis and tumor cell growth inhibitory activity of 3-nitro-2H-cheromene derivatives as histone deacetylaes inhibitors” (Bioorg Med Chem, 2017)

Experiments:
HeLa = experiment: Antiproliferative activity against human HeLa cells after 48 hrs by MTT assay; assay type: functional
MCF7 = experiment: Antiproliferative activity against human MCF7 cells after 48 hrs by MTT assay; assay type: functional
K562 = experiment: Antiproliferative activity against human K562 cells after 48 hrs by MTT assay; assay type: functional
PC-3 = experiment: Antiproliferative activity against human PC3 cells after 48 hrs by MTT assay; assay type: functional
A549 = experiment: Antiproliferative activity against human A549 cells after 48 hrs by MTT assay; assay type: functional
Histone deacetylase 2 [1] = molecular target: T1, Histone deacetylase 2 (Homo sapiens, UniProt Q92769); conditions: at 10 µM
T1 sequence (Q92769 whole entry): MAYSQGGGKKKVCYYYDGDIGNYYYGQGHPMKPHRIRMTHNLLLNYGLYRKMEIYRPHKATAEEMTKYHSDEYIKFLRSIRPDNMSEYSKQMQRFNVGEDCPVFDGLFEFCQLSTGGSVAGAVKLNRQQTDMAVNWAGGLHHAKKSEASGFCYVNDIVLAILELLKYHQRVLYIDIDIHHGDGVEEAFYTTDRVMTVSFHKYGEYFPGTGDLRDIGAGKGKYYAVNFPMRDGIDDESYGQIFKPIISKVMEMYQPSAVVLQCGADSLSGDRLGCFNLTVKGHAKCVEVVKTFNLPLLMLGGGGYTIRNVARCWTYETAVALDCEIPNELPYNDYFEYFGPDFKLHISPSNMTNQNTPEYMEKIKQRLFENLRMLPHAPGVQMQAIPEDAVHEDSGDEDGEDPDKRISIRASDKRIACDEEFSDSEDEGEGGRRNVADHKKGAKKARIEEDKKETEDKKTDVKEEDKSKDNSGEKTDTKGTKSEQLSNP
Description: Inhibition of HDAC2 (unknown origin) at 10 uM using Ac-Leu-GlyLys(Ac)-AMC as substrate preincubated for 10 mins followed by substrate addition measured after 30 mins by fluorescence analysis

Histone deacetylase 2 [2] = molecular target: T1, Histone deacetylase 2; experiment: Inhibition of HDAC2 (unknown origin) using Ac-Leu-GlyLys(Ac)-AMC as substrate preincubated for 10 mins followed by substrate addition measured after 30 mins by fluorescence analysis
Histone deacetylase 1 = Histone deacetylase 1 (Homo sapiens, UniProt Q13547); experiment: Inhibition of HDAC1 (unknown origin) using Ac-Leu-GlyLys(Ac)-AMC as substrate preincubated for 10 mins followed by substrate addition measured after 30 mins by fluorescence analysis
Chain of Histone deacetylase 1 (Q13547 whole entry): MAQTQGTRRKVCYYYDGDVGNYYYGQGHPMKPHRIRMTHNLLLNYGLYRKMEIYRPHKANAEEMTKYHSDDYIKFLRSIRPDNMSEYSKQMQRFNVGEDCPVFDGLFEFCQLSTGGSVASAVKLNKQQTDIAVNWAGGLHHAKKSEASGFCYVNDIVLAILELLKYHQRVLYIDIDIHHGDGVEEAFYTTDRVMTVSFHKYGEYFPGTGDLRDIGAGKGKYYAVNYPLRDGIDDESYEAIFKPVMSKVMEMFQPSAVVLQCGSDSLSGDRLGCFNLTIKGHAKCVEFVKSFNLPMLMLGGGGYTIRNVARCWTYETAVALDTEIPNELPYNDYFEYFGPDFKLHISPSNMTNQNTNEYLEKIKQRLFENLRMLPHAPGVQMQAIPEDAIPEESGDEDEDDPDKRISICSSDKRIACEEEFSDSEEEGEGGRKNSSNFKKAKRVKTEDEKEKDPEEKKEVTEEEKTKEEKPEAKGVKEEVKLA

| GI50 (HeLa; Homo sapiens, HeLa, 48 h) [µM] | GI50 (MCF7; Homo sapiens, MCF7, 48 h) [µM] | GI50 (K562; Homo sapiens, K562, 48 h) [µM] | GI50 (PC-3; Homo sapiens, PC-3, 48 h) [µM] | GI50 (A549; Homo sapiens, A549, 48 h) [µM] | inhibition (Histone deacetylase 2 [1]) [%] | IC50 (Histone deacetylase 2 [2]) [µM] | IC50 (Histone deacetylase 1) [µM] | GI50 (HeLa) [µM] | GI50 (MCF7) [µM] | GI50 (K562) [µM] | GI50 (PC-3) [µM] | GI50 (A549) [µM] | Compound |
| --- | --- | --- | --- | --- | --- | --- | --- | --- | --- | --- | --- | --- | --- |
| 19.2 | 19.3 | 9.32 | 19.1 | 18.4 | 98 |  |  |  |  |  |  |  | Nc1ccccc1NC(=O)c1ccc(CNC(=O)OCc2cccnc2)cc1 [ENTINOSTAT] |
| 5.8 | 4.17 | 1.53 | 13.2 | 4.8 | 0 |  |  |  |  |  |  |  | CCOc1cc(NC(=O)CCCCCNC(=O)Cc2ccccc2)cc2c1OCC([N+](=O)[O-])=C2 |
| 16.2 | 9.37 | 2 | 10.7 | 5.4 | 72 | 0.827 | 0.179 |  |  |  |  |  | CCOc1cc(NC(=O)CCCCCCC(=O)Nc2cc(-c3ccccc3)ccc2N)cc2c1OCC([N+](=O)[O-])=C2 |
| > 20 | > 20 | 2.92 | 11.4 | 5.07 | 62 | 1.79 | 0.366 |  |  |  |  |  | CCOc1cc(NC(=O)CCCCCC(=O)Nc2cc(-c3ccc(C)s3)ccc2N)cc2c1OCC([N+](=O)[O-])=C2 |
| > 20 | 5.33 | 3.11 | 6.36 | 5.83 | 55 |  |  |  |  |  |  |  | CCOc1cc(NC(=O)CCCCCCC(=O)Nc2cc(-c3ccc(C)s3)ccc2N)cc2c1OCC([N+](=O)[O-])=C2 |
| 6.74 | 5.96 | 3.32 | 7.17 | 5.23 | 8 |  |  |  |  |  |  |  | CCOc1cc(NC(=O)CCCCCNC(=O)CCCc2ccccc2)cc2c1OCC([N+](=O)[O-])=C2 |
| 18.4 | 7.91 | 2.94 | 13.5 | 13.8 | 32 |  |  |  |  |  |  |  | CCOc1cc(NC(=O)CCCCC(=O)Nc2cc(-c3ccc(C)s3)ccc2N)cc2c1OCC([N+](=O)[O-])=C2 |
|  |  |  |  |  |  | 1.29 | 0.448 |  |  |  |  |  | CCOc1cc(NC(=O)CCCCCNC(=O)[C@H](N)Cc2ccccc2)cc2c1OCC([N+](=O)[O-])=C2 |
| > 20 | 19.1 | 4.12 | 10.9 | 18.2 | 8 |  |  |  |  |  |  |  | CCOc1cc(NC(=O)CCCCCCC(=O)NCCc2ccccc2)cc2c1OCC([N+](=O)[O-])=C2 |
|  |  |  |  |  |  |  |  | 19.2 | 17.9 | 3.66 | 18.8 | 19.4 | O=C(CCCCCCC(=O)Nc1ccccc1)NO [VORINOSTAT] |
| 13.1 | 17.3 | 3.68 | 18.9 | 9.63 | 91 |  |  |  |  |  |  |  | CCOc1cc(NC(=O)CCCCC(=O)Nc2ccccc2N)cc2c1OCC([N+](=O)[O-])=C2 |
| 9.33 | 2.82 | 2.9 | 6.46 | 6.42 | 3 |  |  |  |  |  |  |  | CCOc1cc(NC(=O)CCCCC(=O)NCCc2ccccc2)cc2c1OCC([N+](=O)[O-])=C2 |
| 19.8 | 7.03 | 3.21 | 7.08 | 4.86 | 81 | 0.659 | 0.128 |  |  |  |  |  | CCOc1cc(NC(=O)CCCCCC(=O)Nc2cc(-c3ccccc3)ccc2N)cc2c1OCC([N+](=O)[O-])=C2 |
| 14.9 | 19.4 | 3.96 | > 20 | 12.2 | 96 | 0.759 | 0.288 |  |  |  |  |  | CCOc1cc(NC(=O)CCCCCC(=O)Nc2ccccc2N)cc2c1OCC([N+](=O)[O-])=C2 |
| > 20 | 19.9 | 5.27 | 14.6 | 7.46 | 59 |  |  |  |  |  |  |  | CCOc1cc(NC(=O)CCCCC(=O)Nc2cc(-c3ccccc3)ccc2N)cc2c1OCC([N+](=O)[O-])=C2 |
| > 20 | 13.5 | 3.36 | 8.63 | 11.7 | 93 | 0.439 | 0.232 |  |  |  |  |  | CCOc1cc(NC(=O)CCCCCCC(=O)Nc2ccccc2N)cc2c1OCC([N+](=O)[O-])=C2 |
| > 20 | 8.72 | 3.56 | 11.2 | 5.95 | 90 | 2.91 | 0.742 |  |  |  |  |  | CCOc1cc(NC(=O)CCCCNC(=O)[C@H](N)Cc2ccccc2)cc2c1OCC([N+](=O)[O-])=C2 |
| 6.08 | 6.12 | 3.47 | 7.09 | 5.32 | 0 |  |  |  |  |  |  |  | CCOc1cc(NC(=O)CCCCCC(=O)NCCc2ccccc2)cc2c1OCC([N+](=O)[O-])=C2 |
